Values after ≈ are worked out from the molar mass of the structure shown.
Columns and labels:
[1] = in vivo, po, 500 mg/kg, 24 h
in vivo [2] = details: C57BL/6, mouse, po, 4000 mg/kg
in vivo [3] = details: C57BL/6, mouse, ip, 500 mg/kg
in vivo [4] = details: C57BL/6, mouse, ip, 500 mg/kg; remark: listed apart in the source
in vivo [5] = details: C57BL/6, mouse, po, 500 mg/kg
in vivo [6] = details: C57BL/6, mouse, po, 500 mg/kg; remark: listed apart in the source
[7] = C57BL/6, mouse, in vivo, ip, 500 mg/kg, 168 h
[8] = in vivo, ip, 500 mg/kg, 24 h
in vivo [9] = details: C57BL/6, mouse, iv, 500 mg/kg
[10] = Clearance in C57BL/6 mouse at 500 mg/kg, iv administered as Antitumor B; details: in vivo
[11] = Stability in mouse blood assessed as compound remaining measured at 20 degC for 8 hrs
in vivo [12] = details: C57BL/6, mouse, iv, 500 mg/kg; remark: listed apart in the source
in vivo [13] = details: C57BL/6, mouse, po, 4000 mg/kg; remark: listed apart in the source
in vivo [14] = details: C57BL/6, mouse, ip, 500 mg/kg; remark: listed apart in the source
[15] = Half life in C57BL/6 mouse at 500 mg/kg, po; details: in vivo
in vivo [16] = details: C57BL/6, mouse, ip, 500 mg/kg; remark: listed apart in the source
[17] = Half life in C57BL/6 mouse at 500 mg/kg, ip qd measured after 7 days; details: in vivo, 168 h
SCC-9 = experiment: cells; format: functional, cell-based; details: Homo sapiens, SCC-9, 72 h
[18] = mouse, in vivo, iv, 500 mg/kg
[19] = Half life in C57BL/6 mouse at 4000 mg/kg, po; details: in vivo
[20] = Half life in C57BL/6 mouse at 500 mg/kg, iv administered as Antitumor B; details: in vivo
in vivo [21] = details: C57BL/6, mouse, po, 500 mg/kg; remark: listed apart in the source
[22] = in vivo, po, 4000 mg/kg, 24 h
[23] = Volume of distribution in C57BL/6 mouse at 500 mg/kg, iv administered as Antitumor B; details: in vivo
[24] = in vivo, ip, 500 mg/kg, 168 h
[25] = in vivo, ip, 500 mg/kg, 168 h; remark: listed apart in the source
[26] = Stability in mouse blood assessed as compound remaining measured at - 80 degC for 4 months
in vivo [27] = details: C57BL/6, mouse, po, 500 mg/kg; remark: listed apart in the source
[28] = Stability in mouse blood assessed as compound recovery measured at 25 degC for 4 hrs
in vivo [29] = details: C57BL/6, mouse, po, 4000 mg/kg; remark: listed apart in the source
CAL-27 = experiment: cells; format: functional, cell-based; details: Homo sapiens, CAL-27, 72 h
[30] = in vivo, ip, 500 mg/kg, 24 h; remark: listed apart in the source
in vivo [31] = details: C57BL/6, mouse, po, 4000 mg/kg; remark: listed apart in the source
[32] = mouse, in vivo, iv, 500 mg/kg, 24 h
[33] = mouse, in vivo, po, 500 mg/kg

`O=C1CCC[C@@H]2[C@H]3CCCN4CCC[C@@H](CN12)[C@@H]34` [MATRINE] gave an AUC ([1]; C57BL/6, mouse) of 120.5 ng·h/mL, a Tmax (in vivo [2]) of 42 min and an AUC at 24 h (in vivo [3]) of 1480 ng·h/mL. It also gave an MRT at 168 h (in vivo [4]) of 8 h, a Tmax (in vivo [5]) of 24 min and an AUC(0-inf) (in vivo [6]) of 124 ng·h/mL. It also gave a Tmax [7] of 30 min, a Tmax ([8]; C57BL/6, mouse) of 12 min and an MRT last (in vivo [9]) of 1.8 h. The CL ([10]; C57BL/6, mouse) was 0.8 L/h/kg, the remaining at 8 h [11] was 85% and the Cmax (in vivo [12]) was 3930 ng/mL. It also gave an MRT last (in vivo [13]) of 4.5 h, an MRT at 24 h (in vivo [14]) of 318 min and a half-life [15] of 228 min. The AUC at 168 h (in vivo [16]) was 1650 ng·h/mL, the t1/2 ([17]; C57BL/6, mouse) was 8.2 h and the IC50 (SCC-9) was over 100 µg/mL. For the same compound, the AUC [18] was 5170.7 ng·h/mL, the half-life [19] was 450 min and the half-life [20] was 450 min. For the same compound, the Cmax (in vivo [21]) was 53.8 ng/mL, the AUC ([22]; C57BL/6, mouse) was 3667.7 ng·h/mL and the Vd [23] was 9.1 L/kg. It also gave an AUC ([24]; C57BL/6, mouse) of 2254 ng·h/mL, a Cmax ([25]; C57BL/6, mouse) of 551.8 ng/mL and a remaining at 2920 h [26] of 85%. It also gave an MRT last (in vivo [27]) of 3.6 h, a remaining at 4 h [28] of 85% and an AUC(0-inf) (in vivo [29]) of 5370 ng·h/mL. The IC50 (CAL-27) was 21 µg/mL (≈ 84.6 µM), the Cmax ([30]; C57BL/6, mouse) was 815.9 ng/mL and the Cmax (in vivo [31]) was 709 ng/mL.
`CC1=C2C(=O)O[C@@H](c3ccoc3)[C@]2(C)CCC1` [FRAXINELLONE] gave a Tmax (in vivo [2]) of 30 min, an AUC at 24 h (in vivo [3]) of 2.7 ng·h/mL and an MRT last (in vivo [9]) of 3.2 h. The CL ([10]; mouse) was 0.4 L/h/kg, the remaining at 8 h [11] was 85% and the Cmax (in vivo [12]) was 34.3 ng/mL. For the same compound, the MRT last (in vivo [13]) was 0.4 h, the MRT at 24 h (in vivo [14]) was 36 min and the IC50 (SCC-9) was 43.4 µg/mL (≈ 187 µM). For the same compound, the AUC [18] was 166.8 ng·h/mL, the half-life [20] was 312 min and the AUC [32] was 95.2 ng·h/mL. The AUC ([22]; mouse) was 1.1 ng·h/mL, the Vd [23] was 2.9 L/kg and the remaining at 2920 h [26] was 85%. The remaining at 4 h [28] was 85%, the F [33] was 0.2% and the IC50 (CAL-27) was 22.4 µg/mL (≈ 96.4 µM). It also gave a Cmax ([30]; mouse) of 4.1 ng/mL and a Cmax (in vivo [31]) of 4.7 ng/mL.
Work on `O=c1[nH]cc(F)c(=O)[nH]1` [FLUOROURACIL] yielded an IC50 (SCC-9) of 12.7 µg/mL (≈ 97.6 µM) and an IC50 (CAL-27) of 0.5 µg/mL (≈ 3.84 µM).
For `COc1c2ccccc2nc2occc12` [DICTAMNINE], the AUC at 24 h (in vivo [3]) was 1 ng·h/mL, the MRT at 168 h (in vivo [4]) was 11.7 h and the remaining at 8 h [11] was 85%. For the same compound, the MRT at 24 h (in vivo [14]) was 24 min, the AUC at 168 h (in vivo [16]) was 23.2 ng·h/mL and the IC50 (SCC-9) was 27.8 µg/mL (≈ 140 µM). For the same compound, the Vd [23] was 0.6 L/kg, the remaining at 2920 h [26] was 85% and the remaining at 4 h [28] was 85%. For the same compound, the IC50 (CAL-27) was 19.7 µg/mL (≈ 98.9 µM).
For `Oc1ccc2c(c1)OCC1c3cc4c(cc3OC21)OCO4` (configuration not stated), the AUC ([1]; mouse) was 0.4 ng·h/mL, the Tmax (in vivo [2]) was 42 min and the AUC at 24 h (in vivo [3]) was 5.6 ng·h/mL. It also gave an MRT at 168 h (in vivo [4]) of 8.4 h, a Tmax (in vivo [5]) of 36 min and a Tmax ([8]; mouse) of 12 min. It also gave an MRT last (in vivo [9]) of 3 h, a CL ([10]; mouse) of 0.6 L/h/kg and a remaining at 8 h [11] of 85%. The Cmax (in vivo [12]) was 67.5 ng/mL, the MRT last (in vivo [13]) was 3.6 h and the MRT at 24 h (in vivo [14]) was 18 min. It also gave an AUC at 168 h (in vivo [16]) of 47.4 ng·h/mL, a t1/2 ([17]; mouse) of 2.2 h and an IC50 (SCC-9) of 94.9 µg/mL (≈ 334 µM). The AUC [18] was 71.5 ng·h/mL, the half-life [19] was 210 min and the half-life [20] was 294 min. It also gave a Cmax (in vivo [21]) of 0.5 ng/mL, an AUC [32] of 68.9 ng·h/mL and an AUC ([22]; mouse) of 25.5 ng·h/mL. For the same compound, the Vd [23] was 4.1 L/kg, the AUC ([24]; mouse) was 51.8 ng·h/mL and the Cmax ([25]; mouse) was 17.2 ng/mL. For the same compound, the remaining at 2920 h [26] was 85%, the MRT last (in vivo [27]) was 0.6 h and the remaining at 4 h [28] was 85%. The F [33] was 4.6%, the AUC(0-inf) (in vivo [29]) was 27.5 ng·h/mL and the IC50 (CAL-27) was 11.5 µg/mL (≈ 40.5 µM). For the same compound, the Cmax ([30]; mouse) was 15.6 ng/mL and the Cmax (in vivo [31]) was 16.4 ng/mL.

Reference: ChEMBL document CHEMBL5036337 (J Nat Prod, 2021)
